Key:
[1] = system: maximal electroshock seizure (MES); assay: Anti-MES action: protection against tonic extensor (TE) induced by electroshock via a pair of ear electrodes; format: in vivo, ddy strain male mice
Protocol: Animals used were ddy strain male mice (20-22 g) and Wistar strain male rats (150-170 g). Anticonvulsant actions were determined by the ability of the compounds to prevent pentylenetetrazol (PTZ) convulsion and maximal electroshock seizure (MES), using 8 mice per group. Anti-MES action was also judged by the protection against TE induced by electroshock via a pair of ear electrodes ([…] al., J. Pharmacol. exp. Therap., 127 55 (1959)). The results were expressed as 50% effective dose (ED50, mg/kg po) or an inhibition percentage at certain doses used.

[2] = system: pentylenetetrazol (PTZ) convulsion; assay: Anti-PTZ action: protection against tonic extensor (TE) induced by intraperitoneal pentylenetetrazol (100 mg/kg i.p.); format: in vivo, ddy strain male mice; conditions: for ED50 / inhibition at 50 mg/kg: Mus musculus; for inhibition at 50 mg/kg: at 50 mg/kg po (given as <50*)
Protocol: (§1) Animals used were ddy strain male mice (20-22 g) and Wistar strain male rats (150-170 g). Anticonvulsant actions were determined by the ability of the compounds to prevent pentylenetetrazol (PTZ) convulsion and maximal electroshock seizure (MES), using 8 mice per group. Anti-PTZ action was judged by the protection against tonic extensor (TE) induced by intraperitoneal injection of PTZ (100 mg/kg i.p.) (K. Nakamura et al., Arch. int. Pharmacodyn., 156 261 (1965)). The results were expressed as 50% effective dose (ED50, mg/kg po) or an inhibition percentage at certain doses used.

[3] = LD50 in mice, method of Litchfield-Wilcoxon; format: in vivo; conditions: mouse, in vivo, po
Protocol: (§2) Animals used were ddy strain male mice (20-22 g) and Wistar strain male rats (150-170 g).
(§3) LD50 was calculated by the method of Litchfield-Wilcoxon (J. T. Litchfield and F. Wilcoxon, J. Pharmacol. exp. Therap., 96 99 (1949)).

[4] = LD50 in rats, method of Litchfield-Wilcoxon
Protocol: as §2, §3

[5] = system: maximal electroshock seizure (MES) and pentylenetetrazol (PTZ) convulsion; assay: antiepileptic efficacy (anti-MES and anti-PTZ) compared with trimethadione and methotoin; format: in vivo, ddy strain male mice; conditions: from Table 2
Protocol: as §1, with “(1965)). Anti-MES action was also judged by the protection against TE induced by electroshock via a pair of ear electrodes ([…] al., J. Pharmacol. exp. Therap., 127 55 (1959)).” for “(1965)).”

[6] = in vivo
Protocol: as §3

Mice = assay: LD50 in mice, method of Litchfield-Wilcoxon; format: in vivo; conditions: mice, po
Protocol: as §2, §3

Rat = conditions: po, from "Iyakuhin Kenkyuho" (page 258), Asakura Shoten (1968); cited from earlier work
grand-mal seizure = conditions: well known antiepileptic agent; cited from earlier work
peti-mal seizure = conditions: well known antiepileptic agent; cited from earlier work
[7] = Mus musculus, 50% effective dose, po, 8 mice per group
[8] = 50% effective dose, po, PTZ 100 mg/kg i.p., 8 mice per group

| Structure (SMILES) | ED50 [1, 7] [mg/kg] | ED50 [2, 8] [mg/kg] | LD50 ([3]; mice) [mg/kg] | antiepileptic efficacy [5] | inhibition at 50 mg/kg [2] [%] | other results |
| --- | --- | --- | --- | --- | --- | --- |
| CN(C)CCCCOc1ccccc1C=Cc1ccccc1.Cl [Example 1, 2-(4-dimethylaminobutoxy)stilbene hydrochloride] | 38 | 17.8 | 1300 | much greater than that of trimethadione and methotoin |  | LD50 ([4]; in vivo; rat, po): 2000 mg/kg; level of toxicity [6]: low level of toxicity |
| CCC1(c2ccccc2)NC(=O)N(C)C1=O (stereo not drawn) [Methotoin, reference compound] |  |  |  |  |  | ED50 Anti-MES ([1]; 50% effective dose, po, 8 mice per group): 91.3 mg/kg PO; ED50 Anti-PTZ [2, 8]: 51.9 mg/kg PO; LD50 Mice (Mice): 475 mg/kg PO; LD50 Rat (literature) (Rat): 2,500 mg/kg PO; effectiveness against grand-mal seizure (grand-mal seizure): effective against grand-mal seizure |
| CN1C(=O)OC(C)(C)C1=O [Trimethadione, reference compound] | 1180 | 230 | 2200 |  |  | effectiveness against peti-mal seizure (peti-mal seizure): effective against peti-mal seizure |
| CNCCCCOc1ccccc1C=Cc1ccccc1 [compound 2] | 60 | 22.5 | 839 |  |  |  |
| CN1CCN(CCCCOc2ccccc2C=Cc2ccccc2)CC1 [compound 3] | 35.5 | 21.1 |  | much greater than that of trimethadione and methotoin |  | LD50 [3]: 1050 mg/kg; LD50 ([4]; rat, in vivo, po): 2300 mg/kg; level of toxicity [6]: low level of toxicity |
| OCCN1CCN(CCCCOc2ccccc2C=Cc2ccccc2)CC1 [compound 4] | 76.1 | 16.3 | 1050 |  |  |  |
| C(=Cc1ccccc1OCCCCN1CCCCC1)c1ccccc1 [compound 5] | 60 | < 50 | 621 |  | 100 |  |
| OC1CCCN(CCCCOc2ccccc2C=Cc2ccccc2)C1 (stereo not drawn) [compound 6] | 20 | 14 | 415 | much greater than that of trimethadione and methotoin |  |  |
| C(=Cc1ccccc1OCCCCN1CCCC1)c1ccccc1 [compound 7] | 65 | < 50 | 600 |  | 87.5 |  |
| CCCN1CCN(CCCCOc2ccccc2C=Cc2ccccc2)CC1 [compound 8] |  | < 50 |  |  | 85 | inhibition at 50 mg/kg ([1]; Mus musculus, at 50 mg/kg po): 40% |

— patent publication US4217366A, “Pharmaceutically active 2-(4-aminobutoxy)stilbenes” (Mitsubishi Chemical Industries, Ltd., priority 1978, dated 1980)
